Experimental data as given in ChEMBL document CHEMBL5518167, “Degradation of Polo-like Kinase 1 by the Novel Poly-Arginine N-Degron Pathway PROTAC Regulates Tumor Growth in Nonsmall Cell Lung Cancer” (J Med Chem, 2024).
The source made the active and inactive calls. No cut-off for these calls is given here. Where a SMILES comes first, the peptide text is derived from it. Bridges are numbered along the chain shown (N, C = ends). [ ]: non-standard residue; d: D form. His(π-(CH2)8Ph) = N[C@@H](Cc1cncn1CCCCCCCCc1ccccc1)C(=O)O; pT = C[C@@H](OP(=O)(O)O)[C@H](N)C(=O)O; Ahx = NCCCCCC(=O)O

How the values were obtained:
[1] = test system: UBR/PLK1 (Homo sapiens); assay: Protac activity at UBR/PLK1 in human NCI-H1975 cells assessed as PLK1 degradation at 10 uM incubated for 2 to 24 hrs by immunoblotting analysis; conditions: time 2-24 hrs
[2] = test system: UBR/PLK1 (Homo sapiens); assay: Protac activity at UBR/PLK1 in human HeLa cells assessed as PLK1 degradation at 4 uM preincubated for 24 hrs followed by compound washout and measured after 24 to 48 hrs by immunoblotting analysis
[3] = test system: UBR/PLK1 (Homo sapiens); assay: Protac activity at UBR/PLK1 in human PC-9 cells assessed as PLK1 degradation at 5 to 30 uM preincubated for 24 hrs followed by MG132 addition for 8 hrs by immunoblotting analysis; conditions: dose 5-30 µM, time 32.0 hrs
[4] = test system: A549; assay: Antitumor activity against human A549 cells xenografted in nude mouse assessed as fold reduction in tumor size at 10 mg/kg, iv; assay type: functional
[5] = target: E3 ubiquitin-protein ligase UBR2 (Homo sapiens) (UniProt Q8IWV8); assay: Binding affinity to UBR2 (unknown origin) expressed in HEK293T cells incubated for 3 hrs by pull-down assay; assay type: cell-based
[6] = test system: PC-9; assay: Induction of cell cycle arrest in human PC-9 cells assessed as delay in S phase progression at 10 uM incubated for 24 hrs by PI staining based flow cytometry analysis; assay type: functional
[7] = Drug uptake in human HeLa cells nucleus at 10 uM incubated for 24 hrs by PI staining based inverted confocal laser scanning fluorescence microscopic anlaysis; assay type: ADME, subcellular
[8] = target: E3 ubiquitin-protein ligase UBR1 (Homo sapiens) (UniProt Q8IWV7); assay: Binding affinity to UBR1 (unknown origin) expressed in HEK293T cells incubated for 3 hrs by pull-down assay; assay type: cell-based
[9] = test system: HeLa; assay: Antitumor activity against human HeLa cells xenografted in iv dosed nude mouse assessed as reduction in tumor size; assay type: functional, organism-based; conditions: dose 10.0 mg/kg
[10] = test system: A549; assay: Induction of cell cycle arrest in human A549 cells assessed as delay in S phase progression at 10 uM incubated for 24 hrs by PI staining based flow cytometry analysis; assay type: functional
[11] = test system: HeLa; assay: Induction of cell cycle arrest in human HeLa cells assessed as G2/M phase arrest at 10 uM incubated for 24 hrs by PI staining based flow cytometry analysis; assay type: functional
[12] = test system: PC-9; assay: Induction of apoptosis in human PC-9 cells at 25 uM incubated for 24 hrs by fluorescence microscopic analysis; assay type: functional, cell-based
[13] = test system: NCI-H1975; assay: Induction of apoptosis in human NCI-H1975 cells at 25 uM incubated for 24 hrs by fluorescence microscopic analysis; assay type: functional, cell-based
[14] = In vivo induction of PLK1 degradation in nude mouse xenografted with human NCI-H1975 cells assessed as reduction in PLK1 protein expression at 10 mg/kg, iv administered for every 3 days in presence of 5 mg/kg osimertinib by Western blotting analysis; assay type: functional; parameters: scale not given: the % may be the effect or the level left
[15] = target: Serine/threonine-protein kinase PLK1 (Homo sapiens, UniProt P53350); assay: Binding affinity to PLK1 PBD (unknown origin) by ITC method
[16] = test system: A549; assay: Cytotoxicity against human A549 cells incubated for 24 hrs by MTT assay; assay type: functional, cell-based; conditions: A549, 24 h
[17] = Protac activity at UBR/PLK1 in human A549 cells assessed as PLK1 degradation incubated for 24 hrs by immunoblotting analysis
[18] = test system: UBR/PLK1 (Homo sapiens); assay: as above; conditions: dose 5-25 µM
[19] = test system: HeLa; assay: Induction of apoptosis in human HeLa cells at 18 uM incubated for 24 hrs by fluorescence microscopic analysis; assay type: functional, cell-based
[20] = test system: HeLa; assay: Antitumor activity against human HeLa cells xenografted in nude mouse assessed as fold reduction in tumor size at 10 mg/kg, iv; assay type: functional
[21] = test system: PC-9; assay: Cytotoxicity against human PC-9 cells incubated for 24 hrs by MTT assay; assay type: functional, cell-based; conditions: PC-9, 24 h
[22] = In vivo induction of PLK1 degradation in nude mouse xenografted with human NCI-H1975 cells assessed as reduction in PLK1 protein expression at 10 mg/kg, iv administered for every 3 days by Western blotting analysis; assay type: functional; parameters: scale not given: the % may be the effect or the level left
[23] = Protac activity at UBR/PLK1 in human HeLa cells assessed as PLK1 degradation incubated for 24 hrs by immunoblotting analysis
[24] = test system: UBR/PLK1 (Homo sapiens); assay: as above; conditions: dose 25-100 µM
[25] = Drug uptake in human HeLa cells cell membrane at 10 uM incubated for 24 hrs by PI staining based inverted confocal laser scanning fluorescence microscopic analysis; assay type: ADME
[26] = test system: NCI-H1975; assay: Cytotoxicity against human NCI-H1975 cells assessed as change in morphology at 25 uM incubated for 24 hrs by phase contrast microscopic assay; assay type: functional, cell-based
[27] = test system: UBR/PLK1 (Homo sapiens); assay: Protac activity at UBR/PLK1 in human PC-9 cells assessed as PLK1 degradation at 30 uM incubated for 24 hrs by immunoblotting analysis
[28] = test system: UBR/PLK1 (Homo sapiens); assay: Protac activity at UBR/PLK1 in human A549 cells assessed as PLK1 degradation at 5 to 30 uM preincubated for 24 hrs followed by MG132 addition for 8 hrs by immunoblotting analysis; conditions: dose 5-30 µM, time 32.0 hrs
[29] = Protac activity at UBR/PLK1 in human NCI-H1975 cells assessed as PLK1 degradation incubated for 24 hrs by immunoblotting analysis
[30] = test system: UBR/PLK1 (Homo sapiens); assay: as above; conditions: dose 5-25 µM
[31] = test system: UBR/PLK1 (Homo sapiens); assay: Protac activity at UBR/PLK1 in human HeLa cells assessed as PLK1 degradation at 5 uM incubated for 24 hrs by immunoblotting analysis
[32] = test system: PC-9; assay: Induction of cell cycle arrest in human PC-9 cells assessed as G2/M phase arrest at 10 uM incubated for 24 hrs by PI staining based flow cytometry analysis; assay type: functional
[33] = test system: UBR/PLK1 (Homo sapiens); assay: Protac activity at UBR/PLK1 in human A549 cells assessed as PLK1 degradation at 25 uM incubated for 2 to 24 hrs by immunoblotting analysis; conditions: time 2-24 hrs
[34] = test system: UBR/PLK1 (Homo sapiens); assay: Protac activity at UBR/PLK1 in human HeLa cells assessed as PLK1 degradation at 0.3 to 3 uM preincubated for 24 hrs followed by MG132 addition for 8 hrs by immunoblotting analysis; conditions: dose 0.3-3 µM

E3 ubiquitin-protein ligase UBR2 (Homo sapiens), sequence (Q8IWV8 whole entry): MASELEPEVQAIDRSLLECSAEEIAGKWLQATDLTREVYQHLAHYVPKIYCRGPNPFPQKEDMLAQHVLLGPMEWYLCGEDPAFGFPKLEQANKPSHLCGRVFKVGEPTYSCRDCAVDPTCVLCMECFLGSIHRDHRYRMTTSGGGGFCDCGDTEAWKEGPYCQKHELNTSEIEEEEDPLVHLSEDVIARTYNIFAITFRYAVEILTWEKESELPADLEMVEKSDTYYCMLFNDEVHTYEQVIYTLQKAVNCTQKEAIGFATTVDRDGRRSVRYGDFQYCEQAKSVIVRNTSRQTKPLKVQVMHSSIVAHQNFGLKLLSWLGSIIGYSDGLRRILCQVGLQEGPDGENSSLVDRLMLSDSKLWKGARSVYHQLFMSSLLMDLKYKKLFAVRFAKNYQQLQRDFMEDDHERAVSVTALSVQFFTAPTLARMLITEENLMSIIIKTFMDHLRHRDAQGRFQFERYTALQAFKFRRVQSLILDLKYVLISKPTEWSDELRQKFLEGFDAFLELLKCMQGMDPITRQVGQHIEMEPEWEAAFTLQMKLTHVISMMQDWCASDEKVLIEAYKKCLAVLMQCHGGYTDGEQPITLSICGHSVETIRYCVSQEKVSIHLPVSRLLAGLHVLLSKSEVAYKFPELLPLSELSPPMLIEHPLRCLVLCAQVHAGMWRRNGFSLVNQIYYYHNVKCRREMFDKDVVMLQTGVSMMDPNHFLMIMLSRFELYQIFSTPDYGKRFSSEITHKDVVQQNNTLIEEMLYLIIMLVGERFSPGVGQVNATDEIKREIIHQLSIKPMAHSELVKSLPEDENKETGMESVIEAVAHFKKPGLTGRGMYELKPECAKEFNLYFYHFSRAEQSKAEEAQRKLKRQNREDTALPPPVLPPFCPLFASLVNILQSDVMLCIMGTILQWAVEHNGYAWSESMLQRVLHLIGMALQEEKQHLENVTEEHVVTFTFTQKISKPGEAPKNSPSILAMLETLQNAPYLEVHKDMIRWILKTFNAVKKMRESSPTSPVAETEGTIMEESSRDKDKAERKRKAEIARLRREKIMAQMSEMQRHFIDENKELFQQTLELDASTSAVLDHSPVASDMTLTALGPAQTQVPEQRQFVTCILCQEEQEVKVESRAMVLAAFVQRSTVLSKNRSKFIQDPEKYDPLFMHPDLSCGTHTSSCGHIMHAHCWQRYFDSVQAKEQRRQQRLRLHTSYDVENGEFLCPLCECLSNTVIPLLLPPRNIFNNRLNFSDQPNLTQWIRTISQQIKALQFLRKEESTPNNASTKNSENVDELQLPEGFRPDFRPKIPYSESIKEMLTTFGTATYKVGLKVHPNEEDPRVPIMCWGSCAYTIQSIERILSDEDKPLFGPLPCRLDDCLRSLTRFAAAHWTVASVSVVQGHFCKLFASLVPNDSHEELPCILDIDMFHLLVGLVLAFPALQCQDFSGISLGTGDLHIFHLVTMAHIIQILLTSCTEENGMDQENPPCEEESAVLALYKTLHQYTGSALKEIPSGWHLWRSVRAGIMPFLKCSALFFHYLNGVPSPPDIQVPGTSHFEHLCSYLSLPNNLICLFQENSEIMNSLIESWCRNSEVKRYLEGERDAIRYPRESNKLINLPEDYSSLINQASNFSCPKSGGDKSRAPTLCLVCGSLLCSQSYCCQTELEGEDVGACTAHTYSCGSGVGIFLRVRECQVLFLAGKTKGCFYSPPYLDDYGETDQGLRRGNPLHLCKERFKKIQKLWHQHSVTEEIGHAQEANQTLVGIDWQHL
E3 ubiquitin-protein ligase UBR1 (Homo sapiens), sequence (Q8IWV7 whole entry): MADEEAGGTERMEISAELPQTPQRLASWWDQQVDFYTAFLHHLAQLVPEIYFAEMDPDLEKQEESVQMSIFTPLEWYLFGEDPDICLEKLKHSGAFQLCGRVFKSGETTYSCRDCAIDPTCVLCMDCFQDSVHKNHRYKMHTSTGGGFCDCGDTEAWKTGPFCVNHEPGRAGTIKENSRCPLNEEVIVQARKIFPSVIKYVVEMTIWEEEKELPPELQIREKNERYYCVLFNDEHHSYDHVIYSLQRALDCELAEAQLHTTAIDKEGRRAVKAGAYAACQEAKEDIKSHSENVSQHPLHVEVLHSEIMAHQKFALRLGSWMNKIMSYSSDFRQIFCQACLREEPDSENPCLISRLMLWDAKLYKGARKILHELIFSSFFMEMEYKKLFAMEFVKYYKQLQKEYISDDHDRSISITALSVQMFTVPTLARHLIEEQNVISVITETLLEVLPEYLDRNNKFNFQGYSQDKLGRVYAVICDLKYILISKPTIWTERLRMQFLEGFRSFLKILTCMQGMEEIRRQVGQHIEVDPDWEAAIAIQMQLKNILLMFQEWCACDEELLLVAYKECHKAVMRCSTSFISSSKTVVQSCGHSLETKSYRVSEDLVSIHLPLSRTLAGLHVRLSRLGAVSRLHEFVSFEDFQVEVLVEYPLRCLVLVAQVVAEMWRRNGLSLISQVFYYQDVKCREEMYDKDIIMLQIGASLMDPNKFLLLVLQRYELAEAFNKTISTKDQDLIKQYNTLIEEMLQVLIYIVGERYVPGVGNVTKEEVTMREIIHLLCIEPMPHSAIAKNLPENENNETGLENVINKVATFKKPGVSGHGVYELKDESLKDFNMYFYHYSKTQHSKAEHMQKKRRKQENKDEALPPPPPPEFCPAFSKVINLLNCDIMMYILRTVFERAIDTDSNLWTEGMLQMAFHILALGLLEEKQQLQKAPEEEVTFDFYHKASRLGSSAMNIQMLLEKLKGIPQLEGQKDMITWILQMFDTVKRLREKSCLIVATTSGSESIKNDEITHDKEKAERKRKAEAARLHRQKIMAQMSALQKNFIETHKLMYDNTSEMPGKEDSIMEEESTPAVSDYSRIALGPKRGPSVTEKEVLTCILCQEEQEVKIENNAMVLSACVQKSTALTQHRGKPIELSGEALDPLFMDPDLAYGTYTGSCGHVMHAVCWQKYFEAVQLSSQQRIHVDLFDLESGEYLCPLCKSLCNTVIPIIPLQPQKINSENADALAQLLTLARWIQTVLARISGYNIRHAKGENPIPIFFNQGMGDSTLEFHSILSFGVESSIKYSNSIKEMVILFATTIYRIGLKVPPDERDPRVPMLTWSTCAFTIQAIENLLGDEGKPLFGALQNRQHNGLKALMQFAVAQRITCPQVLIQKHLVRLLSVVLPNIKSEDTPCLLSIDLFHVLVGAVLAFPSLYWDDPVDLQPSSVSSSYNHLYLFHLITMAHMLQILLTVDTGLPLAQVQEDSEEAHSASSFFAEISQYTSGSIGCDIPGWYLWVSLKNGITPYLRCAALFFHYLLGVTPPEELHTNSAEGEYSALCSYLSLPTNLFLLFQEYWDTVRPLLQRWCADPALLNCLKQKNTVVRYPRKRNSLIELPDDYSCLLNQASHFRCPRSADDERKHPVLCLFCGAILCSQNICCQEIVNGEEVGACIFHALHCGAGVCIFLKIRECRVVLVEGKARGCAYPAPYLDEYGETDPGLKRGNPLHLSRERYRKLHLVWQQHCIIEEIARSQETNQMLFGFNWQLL
Serine/threonine-protein kinase PLK1, sequence (P53350 whole entry): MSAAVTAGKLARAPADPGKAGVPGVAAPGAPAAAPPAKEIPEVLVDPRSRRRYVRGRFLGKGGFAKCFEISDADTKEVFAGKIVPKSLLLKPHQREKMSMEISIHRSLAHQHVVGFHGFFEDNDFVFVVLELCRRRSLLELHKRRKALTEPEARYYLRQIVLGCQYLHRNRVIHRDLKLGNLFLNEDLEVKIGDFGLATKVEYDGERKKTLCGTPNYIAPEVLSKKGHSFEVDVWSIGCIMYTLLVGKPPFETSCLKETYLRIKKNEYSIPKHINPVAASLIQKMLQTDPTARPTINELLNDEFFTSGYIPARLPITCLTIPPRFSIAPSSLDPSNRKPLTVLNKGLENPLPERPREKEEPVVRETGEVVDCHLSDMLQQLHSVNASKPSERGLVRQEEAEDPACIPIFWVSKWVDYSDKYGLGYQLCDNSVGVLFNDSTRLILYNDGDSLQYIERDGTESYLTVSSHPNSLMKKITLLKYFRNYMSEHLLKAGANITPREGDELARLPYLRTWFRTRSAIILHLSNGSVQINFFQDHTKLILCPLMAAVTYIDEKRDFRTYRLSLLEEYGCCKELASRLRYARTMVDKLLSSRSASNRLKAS

What does the source list for `C[C@@H](OP(=O)(O)O)[C@@H]1NC(=O)[C@H](Cc2cncn2CCCCCCCCc2ccccc2)NC(=O)[C@@H](NC(=O)CCCCCNC(=O)[C@H](CCCNC(=N)N)NC(=O)[C@H](CCCNC(=N)N)NC(=O)[C@H](CCCNC(=N)N)NC(=O)[C@H](CCCNC(=N)N)NC(=O)[C@H](CCCNC(=N)N)NC(=O)[C@H](CCCNC(=N)N)NC(=O)[C@H](CCCNC(=N)N)NC(=O)[C@H](CCCNC(=N)N)NC(=O)[C@H](CCCNC(=N)N)NC(=O)[C@H](CCCNC(=N)N)NC(=O)[C@H](CCCNC(=N)N)NC(=O)[C@@H](N)CCCNC(=N)N)CCC(=O)NCCCC[C@@H](C(N)=O)NC1=O` (H-RRRRRRRRRRRR[Ahx]E[His(π-(CH2)8Ph)][pT]K-NH2; lactam 14-17)?
Activity [1]: Active; Activity [2]: Active; Activity [3]: inactive; fold change (FC) [4]: 6.3; Activity [5]: Active; Activity [6]: Active; Drug uptake [7]: Active; Activity [8]: Active; Activity [9]: Dose-Dependent Effect; Activity [10]: Active; Activity [11]: 21%; Activity [12]: Active; Activity [13]: Active; Activity [14]: 75%; Kd [15]: 3.48 µM; IC50 [16]: 20.6 µM; DC50 [17]: 27 µM; Activity [18]: Dose-Dependent Effect; Activity [19]: Active; fold change (FC) [20]: 3.4; IC50 [21]: 17.1 µM; Activity [22]: >60%; DC50 [23]: 2.5 µM; Activity [24]: Dose-Dependent Effect; Drug uptake [25]: Active; Activity [26]: Active; Emax [27]: 100%; Activity [28]: inactive; DC50 [29]: 12 µM; Activity [30]: Dose-Dependent Effect; Emax [31]: 80%; Activity [32]: 9%; Activity [33]: Active; Activity [34]: inactive
